Reference: patent US20250375417A1, “OREXIN RECEPTOR 2 (OX2R) AGONIST FOR USE IN NARCOLEPSY TYPE 1 (NT1)” (TAKEDA PHARMACEUTICAL COMPANY LIMITED, priority 2024, published 2025)
Values joined by “and” are separate entries in the source; they are usually repeats but may differ in a detail not shown here. Equal entries are not always repeated.

What was measured:
participants with NT1 = test: Safety and tolerability (TEAEs), Phase 2 NT1 trial; assay type: in vivo, human
From the text: Standard safety endpoints (e,g., treatment […] adverse events (TEAEs), physical examination findings, vital signs, 12-lead ECG measures, clinical laboratory results) for early clinical investigation were included. Further, because cardiovascular effects have been noted in nonclinical models with Compound A and OX2R agonists in general, and these effects are thought to be on-target effects, close monitoring of cardiovascular parameters, including time-matched BP measurements before and after dosing to detect any changes and potential tolerance in BP after the administration of repeat doses to participants with NT1 were included. Ambulatory blood pressure monitoring (ABPM) was also obtained to assess BP in the outpatient setting in a rigorous manner.
In addition, because liver function test (LFT) elevation cases have been observed in another OX2R agonist with structural similarity, LFTs (ALT, AST, GGT, and total bilirubin) were closely monitored.
The following doses were studied: • Compound A Dose Regimen 1:0.5 mg twice daily approximately 3 hours apart. • Compound A Dose Regimen 2:2 mg twice daily approximately 3 hours apart. • Compound A Dose Regimen 3:2 mg followed by 5 mg approximately 3 hours apart. • Compound A Dose Regimen 4:7 mg once daily (QD). • Other products required for the study: Matching placebo.
Endpoints included change from baseline to Week 8 in mean sleep onset latency on the Maintenance of Wakefulness Test (SOL-MWT; primary endpoint), ESS total score, weekly cataplexy rate (WCR), and occurrence of treatment-emergent adverse events (TEAEs).

patients with NT1 = test: Ambulatory blood pressure monitoring (ABPM), nocturnal BP dip, Phase 2 NT1 trial; assay type: in vivo, human; conditions: for DBP 24-h average, LS mean change at Week 6 from baseline / DBP 24-h pattern dip, LS mean change at Week 6 from baseline / DBP 24-h pattern highest, LS mean change at Week 6 from baseline / DBP 24-h pattern lowest, LS mean change at Week 6 from baseline / SBP 24-h average, LS mean change at Week 6 from baseline / SBP 24-h pattern dip, LS mean change at Week 6 from baseline / SBP 24-h pattern highest, LS mean change at Week 6 from baseline / SBP 24-h pattern lowest, LS mean change at Week 6 from baseline: baseline DBP non-dippers
From the text: Blunted nocturnal blood pressure (BP) dip, a potential risk factor for cardiovascular disease, may affect approximately ⅓ of patients with NT1. In the studies described herein, ambulatory blood pressure monitoring (ABPM) recordings can be obtained over an approximately 24.5-hour period and participants should not be confined to the clinical site during most of the 24.5-hour recording period. The ABPM device should be applied on-site. Because it is a requirement that the ABPM devices begin recording in the morning before the first morning dose (or similar time if performed during screening period), site staff may opt to confine participants in the evening before fitting participants with the ABPM monitoring device. If the participant is travelling to the site for the ABPM fitting, they may delay their first morning dose of study medication (to be taken no later than 10 AM) if needed. Participants who are confined the evening prior should also take their study drug right after the ABPM recording starts. For the ABPM during the screening period, the recording should begin between 8:00 AM±2 hours. Sites should ensure that all recordings meet the minimum threshold of acceptability. […] Participants will be trained on the use of the device with NT1.
Using functional data analysis, systolic BP (SBP) and diastolic BP (DBP) can be estimated in 24-hour patterns and key parameters, such as average, waveform amplitude, lowest and highest points, and dip amplitude (defined as [average−lowest]/average) can be extracted for each subject-visit. Non-dippers are defined as DBP 24-hour dip<13.44, as projected from a DBP fixed-window daytime to nighttime dip of <10%.
Blunted nocturnal blood pressure (BP) dip, a potential risk factor for cardiovascular disease, may affect approximately ⅓ of patients with narcolepsy type 1 (NT1). Ambulatory BP monitor (ABPM) data from 112 study patients with NT1 was measured. Using functional data analysis, systolic BP (SBP) and diastolic BP (DBP) were estimated in 24-hour patterns and key parameters were extracted, such as average, waveform amplitude, lowest and highest values, and dip amplitude (defined as [average-lowest]/average) at baseline and Week 6. […] Non-dippers were defined as having DBP 24-hour dip below a threshold corresponding to DBP daytime (6 am-10 pm) to nighttime ([…]) drop of <10%. Longitudinal changes in BP parameters were quantified across five randomized treatment arms (placebo, Compound A 0.5 mg twice 3 hours apart, 2 mg twice 3 hours apart, 2 mg then 5 mg 3 hours later, and 7 mg once-daily) at Week 6 post-baseline. Associations between BP and sleep parameters were assessed longitudinally by matching ABPM data from baseline and Week 6 with nocturnal polysomnography data from baseline and Week 8, respectively.

[1] = Clinical studies of Compound A: drug-induced liver injury; assay type: in vivo
From the text: Liver function test (LFTs) (alanine aminotransferase [ALT], aspartate aminotransferase [AST], γ-glutamyl transferase [GGT], and total bilirubin) were closely monitored in this study. Stopping criteria for individual participants and the overall study, based on abnormal LFTs were established.

[2] = Compound A-treated participants

CCS(=O)(=O)N[C@@H]1[C@H](Cc2cccc(-c3cc(F)cc(F)c3)c2F)N(C(=O)C(C)(C)O)CC1(F)F [Compound A, N-{(2S,3R)-4,4-difluoro-1-(2-hydroxy-2-methylpropanoyl)-2-[(2,3′,5′-trifluoro[1,1′-biphenyl]-3-yl)methyl]pyrrolidin-3-yl}ethanesulfonamide]
Adverse events of mild to moderate insomnia, participants (participants with NT1; [2]): 48%
Time to resolution of most insomnia adverse events (participants with NT1; [2]): ≤ 1 week
Most common TEAEs (participants with NT1; Phase 2): urinary urgency/frequency and insomnia
Hepatotoxicity or visual disturbances (participants with NT1; Phase 2, 8 weeks): No cases of hepatotoxicity or visual disturbances were reported
Tolerability (participants with NT1; Phase 2, 8 weeks): generally well tolerated
Occurrence of TEAEs (participants with NT1; all Compound A doses (70/90 patients), 8 weeks): 77.8%
Treatment-related serious TEAEs or discontinuations due to TEAEs (participants with NT1; during the study): No treatment-related serious TEAEs or discontinuations due to TEAEs occurred
SBP or DBP dip, change from baseline at Week 6 (patients with NT1; baseline DBP dippers (n=73), either treatment arm): no significant changes
DBP 24-h average, LS mean change at Week 6 from baseline (patients with NT1; 0.5 mg/0.5 mg): 0.17
DBP 24-h pattern dip, LS mean change at Week 6 from baseline (patients with NT1; 0.5 mg/0.5 mg): 2.7% and 2.67%
DBP 24-h pattern highest, LS mean change at Week 6 from baseline (patients with NT1; 0.5 mg/0.5 mg): 0.75
DBP 24-h pattern lowest, LS mean change at Week 6 from baseline (patients with NT1; 0.5 mg/0.5 mg): −1.73
SBP 24-h average, LS mean change at Week 6 from baseline (patients with NT1; 0.5 mg/0.5 mg): −1.42
SBP 24-h pattern dip, LS mean change at Week 6 from baseline (patients with NT1; 0.5 mg/0.5 mg): 1.20%
SBP 24-h pattern highest, LS mean change at Week 6 from baseline (patients with NT1; 0.5 mg/0.5 mg): −0.87
SBP 24-h pattern lowest, LS mean change at Week 6 from baseline (patients with NT1; 0.5 mg/0.5 mg): −2.48
DBP 24-h average, LS mean change at Week 6 from baseline (patients with NT1; 2 mg/2 mg): −0.08
DBP 24-h pattern dip, LS mean change at Week 6 from baseline (patients with NT1; 2 mg/2 mg): 7.9% and 7.91%
DBP 24-h pattern highest, LS mean change at Week 6 from baseline (patients with NT1; 2 mg/2 mg): 1.62
DBP 24-h pattern lowest, LS mean change at Week 6 from baseline (patients with NT1; 2 mg/2 mg): −5.93
SBP 24-h average, LS mean change at Week 6 from baseline (patients with NT1; 2 mg/2 mg): 0.05
SBP 24-h pattern dip, LS mean change at Week 6 from baseline (patients with NT1; 2 mg/2 mg): 5.36%
SBP 24-h pattern highest, LS mean change at Week 6 from baseline (patients with NT1; 2 mg/2 mg): 1.45
SBP 24-h pattern lowest, LS mean change at Week 6 from baseline (patients with NT1; 2 mg/2 mg): −6.55
DBP 24-h average, LS mean change at Week 6 from baseline (patients with NT1; 2 mg/5 mg): −3.40
DBP 24-h pattern dip, LS mean change at Week 6 from baseline (patients with NT1; 2 mg/5 mg): 8.1% and 8.11%
DBP 24-h pattern highest, LS mean change at Week 6 from baseline (patients with NT1; 2 mg/5 mg): −1.18
DBP 24-h pattern lowest, LS mean change at Week 6 from baseline (patients with NT1; 2 mg/5 mg): −8.71
SBP 24-h average, LS mean change at Week 6 from baseline (patients with NT1; 2 mg/5 mg): −4.13
SBP 24-h pattern dip, LS mean change at Week 6 from baseline (patients with NT1; 2 mg/5 mg): 4.11%
SBP 24-h pattern highest, LS mean change at Week 6 from baseline (patients with NT1; 2 mg/5 mg): −1.86
SBP 24-h pattern lowest, LS mean change at Week 6 from baseline (patients with NT1; 2 mg/5 mg): −8.80
DBP 24-h average, LS mean change at Week 6 from baseline (patients with NT1; 7 mg QD): −0.75
DBP 24-h pattern dip, LS mean change at Week 6 from baseline (patients with NT1; 7 mg QD): 6.6% and 6.61%
DBP 24-h pattern highest, LS mean change at Week 6 from baseline (patients with NT1; 7 mg QD): 1.26
DBP 24-h pattern lowest, LS mean change at Week 6 from baseline (patients with NT1; 7 mg QD): −5.13
SBP 24-h average, LS mean change at Week 6 from baseline (patients with NT1; 7 mg QD): 1.32
SBP 24-h pattern dip, LS mean change at Week 6 from baseline (patients with NT1; 7 mg QD): 3.28%
SBP 24-h pattern highest, LS mean change at Week 6 from baseline (patients with NT1; 7 mg QD): 3.31
SBP 24-h pattern lowest, LS mean change at Week 6 from baseline (patients with NT1; 7 mg QD): −2.44
DBP 24-hour pattern dip, change from baseline at Week 6 (patients with NT1; whole population (n=111), any Compound A dose): no significant changes
Drug-induced liver injury [1]: No cases of drug-induced liver injury have been reported
